The assay addresses T1, Endothelial lipase (EL) (Homo sapiens, UniProt Q9Y5X9).
T1 construct: HT-1080 cells, which were transformed by RAGE technology (Athersys) to overexpress endogenous EL; endogenous in cells; conditioned medium used as the enzyme source
T1 sequence (Q9Y5X9 21-500): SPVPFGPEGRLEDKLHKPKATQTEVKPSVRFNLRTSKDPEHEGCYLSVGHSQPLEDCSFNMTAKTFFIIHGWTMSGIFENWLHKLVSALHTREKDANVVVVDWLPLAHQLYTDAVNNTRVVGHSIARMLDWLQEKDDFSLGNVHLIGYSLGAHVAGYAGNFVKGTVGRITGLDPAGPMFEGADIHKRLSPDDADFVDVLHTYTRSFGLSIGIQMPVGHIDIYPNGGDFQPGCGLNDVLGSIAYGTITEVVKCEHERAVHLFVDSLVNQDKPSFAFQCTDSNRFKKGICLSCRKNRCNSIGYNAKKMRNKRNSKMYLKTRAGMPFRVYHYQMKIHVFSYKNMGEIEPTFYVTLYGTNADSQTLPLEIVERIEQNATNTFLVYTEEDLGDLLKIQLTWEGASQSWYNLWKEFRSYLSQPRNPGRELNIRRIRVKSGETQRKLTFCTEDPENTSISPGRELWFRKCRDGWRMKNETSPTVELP
As to the kind of experiment: Endothelial lipase (EL) enzymatic assay with fluorescent substrate A10070 in DMPG vesicles. Format: biochemical. In a few lines:
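EL activity was followed as a fluorescence rate (488/530 nm, reads every 20 s for 10 min, linear slope) on A10070 doped at 0.05 mole fraction into sonicated DMPG vesicles. Compound was first incubated 20 min at 37 °C, pH 8.0 HEPES/CaCl2 buffer, with conditioned media from EL-overexpressing HT-1080 cells.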

Where [1] appears, read: conditioned media from HT-1080 cells overexpressing endogenous EL, 20 min preincubation at 37° C., read-out: EL IC50.
The mark [2] stands for this setting: range observed in the EL assay, read-out: EL IC50 values.

The structures appear in SMILES notation. Where two headings read alike, the source gives them in different places. Some results are limits rather than exact numbers.

The IC50 is the concentration that inhibits the measured activity by half.

In the case of `Nc1c(C(=O)N[C@@H]2CC[C@H](c3ccc(-c4cccc5ncccc45)cc3)C2)[nH]c(=O)[nH]c1=O` [Example 175, 5-amino-2,6-dioxo-N-((1R,3S)-3-(4-(quinolin-5-yl)phenyl)cyclopentyl)-1,2,3,6-tetrahydropyrimidine-4-carboxamide], the half-maximal inhibitory concentration (IC50) was 0.496 µM under setting [1] and no more than 10 µM under setting [2].

Turning to `Nc1c(C(=O)N[C@H]2CC[C@@H](c3ccc(-c4ccnn4C4CCCCO4)cc3)C2)[nH]c(=O)[nH]c1=O` (stereo partly drawn) [Example 176, 5-amino-2,6-dioxo-N-((1S,3R)-3-(4-(1-(tetrahydro-2H-pyran-2-yl)-1H-pyrazol-5-yl)phenyl)cyclopentyl)-1,2,3,6-tetrahydropyrimidine-4-carboxamide], the IC50 under setting [1] was determined as 1.09 µM and the IC50 under setting [2] was no more than 10 µM.

Consider `Nc1c(C(=O)N[C@H]2CC[C@@H](c3ccc(-c4ccc(CO)cc4)cc3)C2)[nH]c(=O)[nH]c1=O` [Example 177, 5-amino-N-((1S,3R)-3-(4′-(hydroxymethyl)biphenyl-4-yl)cyclopentyl)-2,6-dioxo-1,2,3,6-tetrahydropyrimidine-4-carboxamide], for which, under setting [2], the 50% inhibitory concentration (IC50) was no more than 10 µM.

`Nc1c(C(=O)N[C@H]2CC[C@@H](c3ccc(-c4cccc(CO)c4)cc3)C2)[nH]c(=O)[nH]c1=O` [Example 178, 5-amino-N-((1S,3R)-3-(3′-(hydroxymethyl)biphenyl-4-yl)cyclopentyl)-2,6-dioxo-1,2,3,6-tetrahydropyrimidine-4-carboxamide]: under setting [2], the IC50 is no more than 10 µM.

On to `NC(=O)c1ccccc1-c1ccc([C@@H]2CC[C@H](NC(=O)c3[nH]c(=O)[nH]c(=O)c3N)C2)cc1` [Example 180, 5-amino-N-((1S,3R)-3-(2′-carbamoyl-[1,1′-biphenyl]-4-yl)cyclopentyl)-2,6-dioxo-1,2,3,6-tetrahydropyrimidine-4-carboxamide], for which the IC50 runs as follows: under setting [1], 0.141 µM; under setting [2], no more than 10 µM.

Regarding `Nc1c(C(=O)NC2CCN(c3ccccc3)C2)[nH]c(=O)[nH]c1=O` (stereo not drawn) [Example 182, 5-amino-2,6-dioxo-N-(1-phenylpyrrolidin-3-yl)-1,2,3,6-tetrahydropyrimidine-4-carboxamide], the IC50 under setting [2] was no more than 10 µM.

As to `Nc1c(C(=O)NC2CCCN(c3ncccc3Cl)C2)[nH]c(=O)[nH]c1=O` (stereo not drawn) [Example 183, 5-amino-N-(1-(3-chloropyridin-2-yl)piperidin-3-yl)-2,6-dioxo-1,2,3,6-tetrahydropyrimidine-4-carboxamide], the IC50 under setting [2] was no more than 10 µM.

In the case of `Nc1c(C(=O)NC2CCCN(c3nccc(C(F)(F)F)n3)C2)[nH]c(=O)[nH]c1=O` (stereo not drawn) [Example 184, 5-amino-2,6-dioxo-N-(1-(4-(trifluoromethyl)pyrimidin-2-yl)piperidin-3-yl)-1,2,3,6-tetrahydropyrimidine-4-carboxamide], the IC50 under setting [1] worked out at 5.71 µM and the half-maximal inhibitory concentration (IC50) under setting [2] was no more than 10 µM.

With `Cc1cc(Cl)nc(N2CCCC(NC(=O)c3[nH]c(=O)[nH]c(=O)c3N)C2)n1` (stereo not drawn) [Example 185, 5-amino-N-(1-(4-chloro-6-methylpyrimidin-2-yl)piperidin-3-yl)-2,6-dioxo-1,2,3,6-tetrahydropyrimidine-4-carboxamide], under setting [2], the IC50 is no more than 10 µM.

`Nc1c(C(=O)NC2CCN(c3ncccc3Cl)C2)[nH]c(=O)[nH]c1=O` (stereo not drawn) [Example 186, 5-amino-N-(1-(3-chloropyridin-2-yl)pyrrolidin-3-yl)-2,6-dioxo-1,2,3,6-tetrahydropyrimidine-4-carboxamide]: the IC50 was 0.042 µM under setting [1] and no more than 10 µM under setting [2].

With `Nc1c(C(=O)NC2CCN(c3nc(Br)nn3Cc3ccccc3)C2)[nH]c(=O)[nH]c1=O` (stereo not drawn) [Example 187, 5-amino-N-(1-(1-benzyl-3-bromo-1H 1,2,4-triazol-5-yl)pyrrolidin-3-yl)-2,6 dioxo-1,2,3,6-tetrahydropyrimidine-4 carboxamide], the half-maximal inhibitory concentration (IC50) is, setting by setting: under setting [1], 0.946 µM; under setting [2], no more than 10 µM.

Regarding `NC(=O)c1ccc(N2CCC(NC(=O)c3[nH]c(=O)[nH]c(=O)c3N)C2)nc1` (stereo not drawn) [Example 188, 5-amino-N-(1-(5-carbamoylpyridin-2-yl)pyrrolidin-3-yl)-2,6-dioxo-1,2,3,6-tetrahydropyrimidine-4-carboxamide], under setting [2], the concentration for half-maximal inhibition (IC50) is no more than 10 µM.

For `Nc1c(C(=O)NC2CCN(c3ncnc4[nH]ncc34)C2)[nH]c(=O)[nH]c1=O` (stereo not drawn) [Example 189, N-(1-(1H-pyrazolo[3,4-d]pyrimidin-4-yl)pyrrolidin-3-yl)-5-amino-2,6-dioxo-1,2,3,6-tetrahydropyrimidine-4-carboxamide], the IC50 under setting [1] stood at 0.641 µM and the IC50 under setting [2] was no more than 10 µM.

For the molecule `Nc1c(C(=O)NC2CCN(c3ccc(C(F)(F)F)cn3)C2)[nH]c(=O)[nH]c1=O` (stereo not drawn) [Example 190, 5-amino-2,6-dioxo-N-(1-(5-(trifluoromethyl)pyridin-2-yl)pyrrolidin-3-yl)-1,2,3,6-tetrahydropyrimidine-4-carboxamide], the IC50 runs as follows: under setting [1], 0.276 µM; under setting [2], no more than 10 µM.

Consider `Nc1c(C(=O)N[C@@H]2CCN(c3ccccc3)C2)[nH]c(=O)[nH]c1=O` [Example 191, (R)-5-amino-2,6-dioxo-N-(1-phenylpyrrolidin-3-yl)-1,2,3,6-tetrahydropyrimidine-4-carboxamide], for which the IC50 under setting [2] was no more than 10 µM.

Consider `Nc1c(C(=O)N[C@H]2CCN(c3ccccc3)C2)[nH]c(=O)[nH]c1=O` [Example 192, (S)-5-amino-2,6-dioxo-N-(1-phenylpyrrolidin-3-yl)-1,2,3,6-tetrahydropyrimidine-4-carboxamide], for which, under setting [2], the IC50 is no more than 10 µM.

Turning to `Nc1c(C(=O)NC2CC=C(c3ccc(F)c(F)c3)CC2)[nH]c(=O)[nH]c1=O` (stereo not drawn) [Example 202, 5-Amino-N-(4-(3,4-difluorophenyl)cyclohex-3-enyl)-2,6-dioxo-1,2,3,6-tetrahydropyrimidine-4-carboxamide], the 50% inhibitory concentration (IC50) is 1.91 µM under setting [1] and no more than 10 µM under setting [2].

Turning to `Nc1c(C(=O)N[C@H]2CC[C@@H](c3ccccc3)CC2)n(-c2cc(F)cc(C(F)(F)F)c2)c(=O)[nH]c1=O` [Example 203, 5-Amino-3-(3-fluoro-5-(trifluoromethyl)phenyl)-2,6-dioxo-N-(cis-4-phenylcyclohexyl)-1,2,3,6-tetrahydropyrimidine-4-carboxamide], the IC50 by setting is: under setting [1], 6.22 µM; under setting [2], no more than 10 µM.

In the case of `Nc1c(C(=O)N[C@H]2CC[C@@H](c3ccccc3)CC2)n(-c2ccc(Cl)c(Cl)c2)c(=O)[nH]c1=O` [Example 204, 5-amino-3-(3,4-dichlorophenyl)-2,6 dioxo-N-(cis-4-phenylcyclohexyl)-1,2,3,6-tetrahydropyrimidine-4-carboxamide], the IC50 under setting [2] was no more than 10 µM.

With `O=C(N[C@H]1CC[C@@H](c2ccccc2)CC1)c1[nH]c(=O)[nH]c(=O)c1NCc1ccc(F)cc1` [Example 205, 5-(4-Fluorobenzylamino)-2,6-dioxo-N-(cis-4-phenylcyclohexyl)-1,2,3,6-tetrahydropyrimidine-4-carboxamide], the IC50 under setting [2] was no more than 10 µM.

As for `CC(C)CNc1c(C(=O)N[C@H]2CC[C@@H](c3ccccc3)CC2)[nH]c(=O)[nH]c1=O` [Example 206, 5-(isobutylamino)-2,6-dioxo-N-(cis-4-phenylcyclohexyl)-1,2,3,6-tetrahydropyrimidine-4-carboxamide], the IC50 under setting [2] was no more than 10 µM.

On to `O=C(N[C@H]1CC[C@@H](c2ccccc2)CC1)c1[nH]c(=O)[nH]c(=O)c1NCCCc1ccccc1` [Example 207, 2,6-dioxo-N-(cis-4-phenylcyclohexyl)-5-(3-phenylpropylamino)-1,2,3,6-tetrahydropyrimidine-4-carboxamide], for which, under setting [2], the half-maximal inhibitory concentration (IC50) was no more than 10 µM.

Regarding `O=C(N[C@H]1CC[C@@H](c2ccccc2)CC1)c1[nH]c(=O)[nH]c(=O)c1NC1CCCC1` [Example 208, 5-(cyclopentylamino)-2,6-dioxo-N-(cis-4-phenylcyclohexyl)-1,2,3,6-tetrahydropyrimidine-4-carboxamide], the 50% inhibitory concentration (IC50) under setting [1] came to 0.659 µM and the IC50 under setting [2] is no more than 10 µM.

With `O=C(N[C@H]1CC[C@@H](c2ccccc2)CC1)c1[nH]c(=O)[nH]c(=O)c1NCc1cccnc1` [Example 209, 2,6-dioxo-N-(cis-4-phenylcyclohexyl)-5-(pyridin-3-ylmethylamino)-1,2,3,6-tetrahydropyrimidine-4-carboxamide], the IC50 is, setting by setting: under setting [1], 0.512 µM; under setting [2], no more than 10 µM.

As to `CC(C)CCNc1c(C(=O)N[C@H]2CC[C@@H](c3ccccc3)CC2)[nH]c(=O)[nH]c1=O` [Example 210, 5-(isopentylamino)-2,6-dioxo-N-(cis-4-phenylcyclohexyl)-1,2,3,6-tetrahydropyrimidine-4-carboxamide], under setting [2], the IC50 was no more than 10 µM.

`O=C(N[C@H]1CC[C@@H](c2ccccc2)CC1)c1[nH]c(=O)[nH]c(=O)c1NCCN1CCOCC1` [Example 211, 5-(2-morpholinoethylamino)-2,6-dioxo-N-(cis-4-phenylcyclohexyl)-1,2,3,6-tetrahydropyrimidine-4-carboxamide]: the IC50 under setting [1] amounted to 0.291 µM and the half-inhibitory concentration (IC50) under setting [2] is no more than 10 µM.

(Values after patent US9199946B2, “Pyrimidinone carboxamide inhibitors of endothelial lipase” (BRISTOL-MYERS SQUIBB COMPANY, priority 2012, dated 2015).)
